# Literature values as cited in patent US20140200276A1 (iCeutica, Inc., priority 2009, published 2014).
structure (smiles),measurement,setting,value
COc1ccc2cc([C@H](C)C(=O)O)ccc2c1 [naproxen],administered dose excreted in the feces,in vivo,≤ 3%
same,excreted in the urine as 6-O-desmethyl naproxen,in vivo,< 1%
same,naproxen from any dose excreted in the urine,total,Approximately 95%
same,excreted in the urine as naproxen,unchanged naproxen,< 1%
